Test system: SW 1271 complex tumor spheroid viability
Experiment: Anticancer human tumor SW 1271 cell line growth inhibition;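 note: spheroids exposed to agents for seven days before readout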;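 for viability, T/C: percent of DMSO vehicle control luminescence so 100% = vehicle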
Conditions: for IC50: curve of first compound; for viability, T/C: stronger effect = lower value
Source text: Multicellular complex tumor spheroid response to DNA repair inhibitors in combination with DNA-damaging drugs
This study explores the anticancer activities of DNA-damaging drugs and inhibitors of DNA damage repair, both as single agents and in combinations. Complex tumor spheroids comprised of malignant cells, endothelial cells and mesenchymal stem cells served as an in vitro model for human solid tumors. This model system incorporates physiologically relevant features and patient-derived or established malignant cell lines with clinically relevant genetic alterations from many tumor types. Twenty-six patient-derived or established malignant cell lines were evaluated representing sarcoma, melanoma, small cell lung cancer (SCLC), non-small cell lung cancer (NSCLC), as well as bladder, ovarian and pancreatic cancers. The concentration ranges selected for each drug and investigational agent were based upon clinically achievable concentrations if the clinical Cmax of the agent was known.
Compounds. The drugs and compounds olaparib (NSC753686), talazoparib (NSC767125), berzosertib (NSC777718), elimusertib (NSC800525), nedisertib (NSC802822), VX-984 (NSC792969), AZD-1390 (NSC803789), temozolomide (NSC362856), topotecan (NSC609699), trabectedin (NSC813783), staurosporine (NSC755774), and gemcitabine (NSC613327) were obtained from the National Cancer Institute (NCI) Developmental Therapeutics Program Chemical Repository. The FDA-approved anticancer drug set is available from the Developmental Therapeutics Program at https://dtp.cancer.gov/organization/dscb/obtaining/available_plates.htm. […] The stock solutions were prepared in dimethyl sulfoxide (DMSO, Sigma-Aldrich, St. Louis, MO, cat. D2650) at 400-fold the tested concentration and stored at -70 degrees C. Prior to their use, the stock solutions were diluted in fresh medium and the final DMSO concentration in the assay was 0.25% (v/v). All drugs and investigational agents were tested over a range starting from a high concentration at or near the clinical Cmax and decreasing in half-log increments. If the clinical Cmax for an agent had not been determined, the highest concentration tested was 10 microM.
Cell Lines. The patient-derived cancer cell (PDC) lines: 156681-154-R-J1-PDC, 283228-195-R-J1-PDC, 287954-098-R-J1-PDC, 292921-168-R-J2-PDC, 349418-098-R-PDC, 425362-245-T-J1-PDC, 556581-035-R-J1-PDC, and BL0293-F563-PDC were received from the NCI Patient-Derived Models Repository (PDMR, https://pdmr.cancer.gov). The established cell lines HS-SY-2 (RRID:CVCL_8719), MPNST, and SYO-1 (RRID:CVCL_7146) were obtained from the Sloan Kettering Institute. The alveolar soft parts sarcoma cell line ASPS-1 (RRID:CVCL_S738) was established at the NCI and grown from internal seed stocks. The following established cell lines were purchased from the American Type Culture Collection (ATCC, Manassas, VA): G-401 (ATCC, cat. CRL-1441, RRID:CVCL_0270), SW982 (ATCC, cat. HTB-93, RRID:CVCL_1734), VA-ES-BJ (ATCC, cat. CRL-2138, RRID:CVCL_1785), NCI-H719 (ATCC, cat. CRL-5837, RRID:CVCL_1582), NCI-H196 (ATCC, cat. CRL-5823, RRID:CVCL_1509), NCI-H841 (ATCC, cat. CRL-5845, RRID:CVCL_1595), NCI-H1618 (ATCC, cat. CRL-5879, RRID:CVCL_1480), NCI-H1876 (ATCC, cat. CRL-5902, RRID:CVCL_1503), DMS 114 (ATCC, cat. CRL-2066; RRID:CVCL_1174), NCI-H211 (ATCC, cat. CRL-5824; RRID:CVCL_1529), and SW 1271 (ATCC, cat. CRL-2177, RRID:CVCL_1716). The small cell lung cancer cell line COR-L88 was purchased from Sigma-Aldrich (cat. 92031917-1VL, RRID:CVCL_1141). The non-small cell lung cancer cell lines NCI-H226 (RRID:CVCL_1544) and NCI-H322M (RRID:CVCL_1557) were established at the NCI and grown from internal seed stocks. Pooled donor human umbilical vein endothelial cells (HUVEC, Lonza, cat. CC-2519) and human mesenchymal stem cells (hMSC, Lonza, cat. PT-2501) were purchased from Lonza (Walkersville, MD).
Cell Culture. All cells were maintained in an incubator at 37 degrees C and 5% CO2 with 95% humidity. […]

[1] = second compound 0.003 µM, first compound 0.00949 µM
[2] = second compound 0.003 µM, first compound 0.03 µM
[3] = second compound 0.003 µM, first compound 0.0949 µM
[4] = second compound 0.003 µM, first compound 0.3 µM
[5] = second compound 0.003 µM, first compound 0.949 µM
[6] = second compound 0.003 µM, first compound 3 µM
[7] = second compound 0.00949 µM, first compound 0.00949 µM
[8] = second compound 0.00949 µM, first compound 0.03 µM
[9] = second compound 0.00949 µM, first compound 0.0949 µM
[10] = second compound 0.00949 µM, first compound 0.3 µM
[11] = second compound 0.00949 µM, first compound 0.949 µM
[12] = second compound 0.00949 µM, first compound 3 µM
[13] = second compound 0.03 µM, first compound 0.00949 µM
[14] = second compound 0.03 µM, first compound 0.03 µM
[15] = second compound 0.03 µM, first compound 0.0949 µM
[16] = second compound 0.03 µM, first compound 0.3 µM
[17] = second compound 0.03 µM, first compound 0.949 µM
[18] = second compound 0.03 µM, first compound 3 µM
[19] = second compound 0.0949 µM, first compound 0.00949 µM
[20] = second compound 0.0949 µM, first compound 0.03 µM
[21] = second compound 0.0949 µM, first compound 0.0949 µM
[22] = second compound 0.0949 µM, first compound 0.3 µM
[23] = second compound 0.0949 µM, first compound 0.949 µM
[24] = second compound 0.0949 µM, first compound 3 µM
[25] = second compound 0.3 µM, first compound 0.00949 µM
[26] = second compound 0.3 µM, first compound 0.03 µM
[27] = second compound 0.3 µM, first compound 0.0949 µM
[28] = second compound 0.3 µM, first compound 0.3 µM
[29] = second compound 0.3 µM, first compound 0.949 µM
[30] = second compound 0.3 µM, first compound 3 µM

Structure (SMILES)	IC50 (second compound 0.003 µM) [nM]	IC50 (second compound 0.00949 µM) [nM]	IC50 (second compound 0.03 µM) [nM]	IC50 (second compound 0.0949 µM) [nM]	IC50 (second compound 0.3 µM) [nM]	viability, T/C [3] [%]	viability, T/C [4] [%]	viability, T/C [5] [%]	viability, T/C [6] [%]	viability, T/C [9] [%]	viability, T/C [10] [%]	viability, T/C [11] [%]	viability, T/C [12] [%]	viability, T/C [15] [%]	viability, T/C [16] [%]	viability, T/C [17] [%]	viability, T/C [18] [%]	viability, T/C [21] [%]	viability, T/C [22] [%]	viability, T/C [23] [%]	also measured
CNCc1ccc(-c2cc(-c3nc(-c4ccc(S(=O)(=O)C(C)C)cc4)cnc3N)on2)cc1 + CC[C@@]1(O)C(=O)OCc2c1cc1n(c2=O)Cc2cc3c(CN(C)C)c(O)ccc3nc2-1	39.3	< 9.49	< 9.49	< 9.49	< 9.49	21.3	27.2	5.87	0.11	19.9	11.5	9.07	0.1	20.2	34.2	12	0.09	21.6	20.5	10.8	viability, T/C [1]: 84.7%; viability, T/C [2]: 60.7%; viability, T/C [7]: 38.9%; viability, T/C [8]: 29%; viability, T/C [13]: 22.5%; viability, T/C [14]: 23.3%; viability, T/C [19]: 23.2%; viability, T/C [20]: 25.8%; viability, T/C [24]: 0.09%; viability, T/C [25]: 18.1%; viability, T/C [26]: 17%; viability, T/C [27]: 20.4%; viability, T/C [28]: 10.8%; viability, T/C [29]: 1.75%; viability, T/C [30]: 7.62%
Cn1ncnc1[C@H]1c2n[nH]c(=O)c3cc(F)cc(c23)N[C@@H]1c1ccc(F)cc1 + CC[C@@]1(O)C(=O)OCc2c1cc1n(c2=O)Cc2cc3c(CN(C)C)c(O)ccc3nc2-1	< 9.49	< 9.49	< 9.49	< 9.49	< 9.49	21.4	24.1	23.4	21.7	28.4	25.9	26.7	17.2	24.2	25.2	25	18	28.1	23.7	22	viability, T/C [1]: 27.6%; viability, T/C [2]: 23.9%; viability, T/C [7]: 26.2%; viability, T/C [8]: 27.6%; viability, T/C [13]: 27.7%; viability, T/C [14]: 28.3%; viability, T/C [19]: 22.6%; viability, T/C [20]: 27.9%; viability, T/C [24]: 11.3%; viability, T/C [25]: 11.1%; viability, T/C [26]: 16.5%; viability, T/C [27]: 11.4%; viability, T/C [28]: 9.66%; viability, T/C [29]: 6.32%; viability, T/C [30]: 3.75%
O=C(c1cc(Cc2n[nH]c(=O)c3ccccc23)ccc1F)N1CCN(C(=O)C2CC2)CC1 + CC[C@@]1(O)C(=O)OCc2c1cc1n(c2=O)Cc2cc3c(CN(C)C)c(O)ccc3nc2-1	< 94.9	< 94.9	< 94.9	< 94.9	< 94.9	34.5	42.2	40.8	27.9	27	27	28.1	25.3	25	25.5	29.5	37.1	34.8	26.4	28.4	viability, T/C (second compound 0.003 µM, first compound 9.49 µM): 27.4%; viability, T/C (second compound 0.003 µM, first compound 30 µM): 25.8%; viability, T/C (second compound 0.00949 µM, first compound 9.49 µM): 29.2%; viability, T/C (second compound 0.00949 µM, first compound 30 µM): 28.3%; viability, T/C (second compound 0.03 µM, first compound 9.49 µM): 26.1%; viability, T/C (second compound 0.03 µM, first compound 30 µM): 29.7%; viability, T/C [24]: 27.1%; viability, T/C (second compound 0.0949 µM, first compound 9.49 µM): 28.7%; viability, T/C (second compound 0.0949 µM, first compound 30 µM): 28%; viability, T/C [27]: 16.1%; viability, T/C [28]: 13.4%; viability, T/C [29]: 12.1%; viability, T/C [30]: 10.5%; viability, T/C (second compound 0.3 µM, first compound 9.49 µM): 19%; viability, T/C (second compound 0.3 µM, first compound 30 µM): 8.08%
